Patent publication US20040009485A1, “Cellular arrays for the identification of altered gene expression” (priority 2002, published 2004)

Key:
Type in all cases: cell-based, E. coli
[1] = test system: SOS regulon gene fusions; experiment: Stress response of SOS regulon luxCDABE gene fusions (nalidixic acid); settings: for Nalidixic acid response ratio: 5 μg/ml, 110 minutes, LB, treated/untreated
Experimental: To test the stress responses, one or two single colonies of each selected strain were used to inoculate 5.0 ml of LB medium containing 150 μg/ml of ampicillin. These cultures were grown overnight at 37° C. then diluted by adding 50 μl or 100 μl of the overnight culture into 10.0 ml of fresh LB medium (without ampicillin) and grown with agitation at 37° C. until the culture was in exponential phase with readings on a Klett-Summerson colorimeter containing the red filter of between 10 and 40. These actively growing cultures were immediately used to initiate a stress response experiment by adding 50 μl of cultures to 50 μl of LB medium containing various concentrations of chemical in the wells a 96 well luminometer plate. This division of the actively growing culture at the time of chemical addition ensured identical populations were present when the stress was imposed. Light production was measured in a Dynex ML3000 luminometer at 37° C. The dimensionless units of light production, relative light units (RLU), are obtained by comparison with the light reading from an internal light-emitting diode. The cycle mode of the ML3000 luminometer, similar to previous descriptions (Van Dyk et al., Appl. Environ. Microbiol. 60:1414-120) was used.
The ability of these promoter-luxCDABE fusions to report activation of the SOS stress response was tested using nalidixic acid, a known, potent chemical inducer. The final concentrations of nalidixic acid were 1, 5, 25, and 125 μg/ml for all but strain DPD2293, which was tested at 80, 40, 20, 10, 5, 2.5, and 1.25 μg/ml.
Specificity of responses was tested by measuring the effect of ethanol on these SOS regulon gene fusions.

[2] = test system: luxCDABE gene fusions of the Lux-A Collection; experiment: Induction of Lux-A Collection gene fusions by MMC (and yebF fusion by nalidixic acid); settings: light-producing transformants with inverted insert (20% of them)
Experimental: The Lux-A Collection of reporter gene fusions was examined for presence of fusions to the genes in Table 11. […] Each of these was tested for induction by MMC at several doses over a time course of 100 minutes.
As expected, the expression of the known SOS genes was elevated; however the expression of several was elevated less than 2-fold (Table 12) and as such were within a large group of 792 genes the expression of which was elevated by 20% or more. Most of these are likely due to artifacts in the array data rather than to actual biologically relevant responses. To test if strains carrying luxCDABE gene fusions would yield the expected positive result, the three gene fusions that were available in the Lux-A Collection of reporter gene fusions were tested for mitomycin C responses.
In this case, a divergent promoter to the purT gene was present in the chromosomal fragment and strains containing the backward yebF fusion produced light. […] […] The orientation of the inserted segment to yield a fusion of yebF to the luxCDABE operon was confirmed by DNA sequence analysis.

[3] = test system: luxCDABE gene fusions; experiment: Retest of nalidixic acid upregulated gene fusions in liquid medium; settings: for Liquid expt. NA/LB t = 2 hr: at conc of max induction; for # of conc with >1.5 fold up: seven conc 80-1.2 μg/ml
Experimental: Several concentrations of nalidixic acid were used because the differences in responses between liquid and solid growth were not known. Light production of 100 μl duplicate cultures at 37° C. was quantitated using a 96 well plate luminometer (Luminoskan Ascent, Labsystems). […] It should be noted that the liquid medium tests were not corrected for growth inhibition by nalidixic acid.

[4] = test system: luxCDABE gene fusions in lexA+ host; experiment: Mitomycin C and nalidixic acid responses in lexA+ host; settings: for NA Ratio, 2 hr 10 ug/ml: lexA+ host
Experimental: (§1) In addition, the effect of a lexAind mutation was tested to determine if any of these were part of the SOS regulon. The expectation is that SOS regulon member will be induced by both nalidixic acid and mitomycin C in a manner that is dependent on lexA function (Walker, G. C., (1996) Escherichia coli and Salmonella: Cellular and Molecular Biology ASM Press). […] This is consistent with the observation of upregulation of the b1728 mRNA transcript upon mitomycin C treatment in a LexA dependent fashion (Fernández de Henestrosa et al. (2000). Mol. Microbiol. 35:1560-1572). Likewise, two Gene fusions, those to oraA and yigN were identified is new members of the SOS regulon (Table 16). […] Negative, non-DNA damage responsive gene fusions were also included (Table 16).

[5] = test system: luxCDABE gene fusions in lexAind host; experiment: Mitomycin C and nalidixic acid responses in lexAind host; settings: for NA Ratio, 2 hr 10 ug/ml: lexAind host
Experimental: as §1

[6] = 1pxA 1pxB rnhB dnaE fusion (lux-a.pk061.c3)
[7] = dinG ybiB fusion (lux-a.pk0024.f5)
[8] = frvR frvX frvB frvA fusion (lux-a.pk046.e6)
[9] = yfhJ fdx hscA yfhE fusion (lux-a.pk0019.g2)
[10] = lacZ fusion (65.d4), negative control
[11] = yciG fusion (lux-a.pk006.b4), negative control

Structure (SMILES): CCn1cc(C(=O)O)c(=O)c2ccc(C)nc21 [Nalidixic acid, nalidixic acid]
- Nalidixic acid response ratio ([1]; dinF fusion, DPD2247 (lux-a.pk085.a5)): 2.2
- Nalidixic acid response ratio ([1]; dinG fusion, DPD2248 (lux-a.pk0024.f5)): 2.0
- Nalidixic acid response ratio ([1]; dinP fusion, DPD2249 (lux-a.pk055.a3)): 5.0
- bioluminescence compared with untreated culture ([1]; each of the eight SOS fusion strains, at least three concentrations (1-125 μg/ml; DPD2293 1.25-80 μg/ml)): increased bioluminescence
- Nalidixic acid response ratio ([1]; recA fusion, DPD2250 (lux-a.pk022.d4)): 1.8
- Nalidixic acid response ratio ([1]; recA fusion, DPD2251 (lux-a.pk085.b5)): 2.8
- Nalidixic acid response ratio ([1]; ruvA fusion, DPD2293 (lux-a.pk058.f2)): 4.6
- Nalidixic acid response ratio ([1]; uvrA fusion, DPD2253 (lux-a.pk01.b6)): 1.4
- Nalidixic acid response ratio ([1]; uvrD fusion, DPD2254 (lux-a.pk052.b6)): 1.2
- induction of bioluminescence of inverted yebF-luxCDABE fusion [2]: highly induced
- Nal conc of max induction in liquid [3, 6]: 2.5 µg/mL
- Liquid expt. NA/LB t = 2 hr [3, 6]: 1.82
- # of conc with >1.5 fold up [3, 6]: 3
- Nal conc of max induction in liquid ([3]; b1728 fusion (lux-a.pk033.c5)): 5 µg/mL
- Liquid expt. NA/LB t = 2 hr ([3]; b1728 fusion (lux-a.pk033.c5)): 3.67
- # of conc with >1.5 fold up ([3]; b1728 fusion (lux-a.pk033.c5)): 7
- Nal conc of max induction in liquid ([3]; b1936 fusion (lux-a.pk0019.g1)): 10 µg/mL
- Liquid expt. NA/LB t = 2 hr ([3]; b1936 fusion (lux-a.pk0019.g1)): 2.34
- # of conc with >1.5 fold up ([3]; b1936 fusion (lux-a.pk0019.g1)): 6
- Nal conc of max induction in liquid [3, 7]: 5 µg/mL
- Liquid expt. NA/LB t = 2 hr [3, 7]: 4.18
- # of conc with >1.5 fold up [3, 7]: 6
- Nal conc of max induction in liquid ([3]; dinP fusion (lux-a.pk055.a3)): 5 µg/mL
- Liquid expt. NA/LB t = 2 hr ([3]; dinP fusion (lux-a.pk055.a3)): 7.60
- # of conc with >1.5 fold up ([3]; dinP fusion (lux-a.pk055.a3)): 7
- Nal conc of max induction in liquid [3, 8]: 20 µg/mL
- Liquid expt. NA/LB t = 2 hr [3, 8]: 1.46
- # of conc with >1.5 fold up [3, 8]: 0
- Nal conc of max induction in liquid ([3]; fusion (lux-a.pk0015.d6)): 20 µg/mL
- Liquid expt. NA/LB t = 2 hr ([3]; fusion (lux-a.pk0015.d6)): 2.71
- # of conc with >1.5 fold up ([3]; fusion (lux-a.pk0015.d6)): 6
- Nal conc of max induction in liquid ([3]; oraA fusion (lux-a.pk058.f5)): 10 µg/mL
- Liquid expt. NA/LB t = 2 hr ([3]; oraA fusion (lux-a.pk058.f5)): 7.19
- # of conc with >1.5 fold up ([3]; oraA fusion (lux-a.pk058.f5)): 7
- Nal conc of max induction in liquid ([3]; yaaF fusion (lux-a.pk031.e7)): 2.5 µg/mL
- Liquid expt. NA/LB t = 2 hr ([3]; yaaF fusion (lux-a.pk031.e7)): 1.85
- # of conc with >1.5 fold up ([3]; yaaF fusion (lux-a.pk031.e7)): 3
- Nal conc of max induction in liquid [3, 9]: 1.2 µg/mL
- Liquid expt. NA/LB t = 2 hr [3, 9]: 1.02
- # of conc with >1.5 fold up [3, 9]: 0
- Nal conc of max induction in liquid ([3]; yigN fusion (lux-a.pk046.f11)): 1.2 µg/mL
- Liquid expt. NA/LB t = 2 hr ([3]; yigN fusion (lux-a.pk046.f11)): 2.54
- # of conc with >1.5 fold up ([3]; yigN fusion (lux-a.pk046.f11)): 5
- NA Ratio, 2 hr 10 ug/ml [4, 6]: 2.87
- NA Ratio, 2 hr 10 ug/ml ([4]; b1728 fusion (lux-a.pk033.c5)): 5.17
- NA Ratio, 2 hr 10 ug/ml ([4]; b1936 fusion (lux-a.pk0019.g1)): 3.25
- NA Ratio, 2 hr 10 ug/ml [4, 7]: 4.03
- NA Ratio, 2 hr 10 ug/ml ([4]; fusion (lux-a.pk0015.d6)): 3.22
- NA Ratio, 2 hr 10 ug/ml [4, 10]: 0.81
- induction of b1728 promoter-luxCDABE fusion ([4]; lexA+ host (FIG. 9)): clearly induced
- NA Ratio, 2 hr 10 ug/ml ([4]; oraA fusion (lux-a.pk058.f5)): 11.06
- NA Ratio, 2 hr 10 ug/ml ([4]; yaaF fusion (lux-a.pk031.e7)): 1.53
- NA Ratio, 2 hr 10 ug/ml [4, 11]: 0.32
- NA Ratio, 2 hr 10 ug/ml ([4]; yigN fusion (lux-a.pk046.f11)): 5.74
- NA Ratio, 2 hr 10 ug/ml [5, 6]: 2.39
- NA Ratio, 2 hr 10 ug/ml ([5]; b1728 fusion (lux-a.pk033.c5)): 0.40
- NA Ratio, 2 hr 10 ug/ml ([5]; b1936 fusion (lux-a.pk0019.g1)): 1.55
- NA Ratio, 2 hr 10 ug/ml [5, 7]: 0.97
- NA Ratio, 2 hr 10 ug/ml ([5]; fusion (lux-a.pk0015.d6)): 2.29
- NA Ratio, 2 hr 10 ug/ml [5, 10]: 1.05
- induction of b1728 promoter-luxCDABE fusion ([5]; lexAind host strain (FIG. 9)): not induced
- NA Ratio, 2 hr 10 ug/ml ([5]; oraA fusion (lux-a.pk058.f5)): 1.06
- NA Ratio, 2 hr 10 ug/ml ([5]; yaaF fusion (lux-a.pk031.e7)): 1.19
- NA Ratio, 2 hr 10 ug/ml [5, 11]: 0.67
- NA Ratio, 2 hr 10 ug/ml ([5]; yigN fusion (lux-a.pk046.f11)): 0.59
